How the values were obtained:
[1] = test system: Streptomyces flaveolus pzbB (sfaC) deletion mutant; assay type: cell-based
Description: FIG. 5 is a series of LC/MS spectra showing the detection of sanglifehrin, a Piz—containing compound produced by Streptomyces flaveolus. Four major isobaric isomers of sanglifehrin A detected in WT S. flaveolus fermentation extracts. As expected from the results above, an unmarked gene deletion of pzbB (sfaC) from S. flaveolus abrogates sanglifehrin production.
Data indicating L-Piz successfully penetrates at least one Piz-compound producing actinomycete was obtained, followed by subsequent incorporation into a Piz drug-like compound sanglifehrin (see e.g., FIG. 5). […] Four major isobaric isomers of sanglifehrin A detected in WT S. flaveolus fermentation extracts. As expected from the results in FIG. 5, an unmarked gene deletion of pzbB (sfaC) from S. flaveolus abrogates sanglifehrin production.

[2] = test system: SfaC-His6 (PzbB); experiment: Hemin influence on SfaC (PzbB) N5-OH-L-ornithine in vitro assay, piperazic acid quantified by HPLC/MS; assay type: biochemical, Streptomyces flaveolus; details: hemin 10 μM in DMSO vs DMSO alone; SfaC-His6 2 μM; N5-OH-L-orn 1 mM; 50 mM Tris.HCl pH 8.0; aliquots at 30, 60, 90 sec
Sequence of SfaC-His6 (PzbB) (as listed by the source): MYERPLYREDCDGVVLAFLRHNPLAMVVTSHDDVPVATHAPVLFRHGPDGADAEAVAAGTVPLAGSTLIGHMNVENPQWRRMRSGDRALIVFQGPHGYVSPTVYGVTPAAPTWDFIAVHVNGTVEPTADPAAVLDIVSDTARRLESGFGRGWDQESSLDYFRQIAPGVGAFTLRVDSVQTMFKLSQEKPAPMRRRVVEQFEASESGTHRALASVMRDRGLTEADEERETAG
Procedure: As expected for a bona fide cofactor, adding hemin increases the rate of turnover.
100 μL of reaction in 50 mM Tris.HCl at pH 8.0 was set up with N^5—OH-L-orn (1 mM), SfaC-His6 (2 μM), and either hemin in DMSO (10 μM) or just DMSO. The two reactions were incubated at […]. Then, 30 μL aliquots were removed at 30, 60, and 90 sec, and combined with 30 μL 6% 5-sulfosalicylic acid. The cloudy mixture was centrifuged, and the supernatant was used for analysis. Sample was analyzed for piperazic acid by HPLC/MS. Analysis was performed using an lmtakt Intrada Amino Acid column (50×3 mm, 3 μm pore size) installed on an Agilent 1260 Infinity HPLC connected to an Agilent 6420 Triple-Quad mass spectrometer using the following method: T=0, 86% B; T=3, 86% B; T=10, 0% B; T=11, 0% B; T=12, 86% B; T=14, 86% B; A: water+100 mM ammonium formate, B: acetonitrile+0.1% formic acid; 0.6 mL/min. An extracted ion count chromatogram at m/z 131.1 (monoisotopic mass of protonated piperazic acid) was used to detect piperazic acid. For quantification, an SRM transition (m/z 131.1=>56.3; source voltage, 86 V; collision energy, 37 V) was monitored, and a standard curve (second order polynomial, R2=0.9996) was generated between 0.1 μM and 100 μM using a chemically synthesized L-piperazic acid dihydrochloride standard. The concentrations in time were plotted, and fitted to a line. […]

| Compound | toxicity (qualitative) ([1]; 50 μM exogenous L-Piz, S. flaveolus) | cell penetrance ([1]; inferred from restored sanglifehrin production with 50 μM exogenous L-Piz in S. flaveolus) | increase of the slope (rate of reaction, piperazic acid formation) by hemin [2] [times] |
| --- | --- | --- | --- |
| O=C(O)C1CCCNN1 [L-Piz, L-piperazic acid] | qualitatively nontoxic | cell penetrant |  |
| Fe^+3-protoporphryin IX [Hemin] |  |  | 14.4 |

— patent publication US12577597B2, “Transgenic microorganisms and synthesis of piperazic acid, piperazic acid containing products, and derivatives thereof” (Washington University, priority 2017, dated 2026)
